Assays:
Pseudomonas aeruginosa [1] = assay: Antibacterial activity against Pseudomonas aeruginosa incubated for 16 to 20 hrs; format: functional; settings: time 16-20 hrs
Klebsiella pneumoniae [2] = assay: Antibacterial activity against NDM Klebsiella pneumoniae incubated for 16 to 20 hrs; format: functional; settings: time 16-20 hrs
Escherichia coli [3] = assay: Antibacterial activity against Escherichia coli incubated for 16 to 20 hrs; format: functional; settings: time 16-20 hrs
Klebsiella aerogenes [4] = assay: Antibacterial activity against Enterobacter aerogenes incubated for 16 to 20 hrs; format: functional; settings: time 16-20 hrs
Vibrio vulnificus [5] = assay: Antibacterial activity against Vibrio vulnificus 204 incubated for 16 to 20 hrs; format: functional; settings: time 16-20 hrs
Vibrio alginolyticus [6] = assay: Antibacterial activity against Vibrio alginolyticus incubated for 16 to 20 hrs; format: functional; settings: time 16-20 hrs
Vibrio harveyi [7] = assay: Antibacterial activity against Vibrio harveyi incubated for 16 to 20 hrs; format: functional; settings: time 16-20 hrs
Aeromonas hydrophila [8] = assay: Antibacterial activity against Aeromonas hydrophila incubated for 16 to 20 hrs; format: functional; settings: time 16-20 hrs
Edwardsiella tarda [9] = assay: Antibacterial activity against Edwardsiella tarda incubated for 16 to 20 hrs; format: functional; settings: time 16-20 hrs
Vibrio anguillarum [10] = assay: Antibacterial activity against Listonella anguillarum incubated for 16 to 20 hrs; format: functional; settings: time 16-20 hrs
Klebsiella oxytoca [11] = assay: Antibacterial activity against Klebsiella oxytoca incubated for 16 to 20 hrs; format: functional; settings: time 16-20 hrs
Salmonella enterica [12] = assay: Antibacterial activity against Salmonella enterica incubated for 16 to 20 hrs; format: functional; settings: time 16-20 hrs
Salmonella typhimurium [13] = assay: Antibacterial activity against Salmonella typhimurium incubated for 16 to 20 hrs; format: functional, Salmonella enterica subsp. enterica serovar Typhimurium; settings: time 16-20 hrs
[14] = tested on: Staphylococcus haemolyticus; assay: Antibacterial activity against Staphylococcus haemolyticus incubated for 16 to 20 hrs; format: functional; settings: time 16-20 hrs
Streptococcus iniae [15] = assay: Antibacterial activity against Streptococcus iniae incubated for 16 to 20 hrs; format: functional; settings: time 16-20 hrs
Streptococcus agalactiae [16] = assay: Antibacterial activity against Streptococcus agalactiae incubated for 16 to 20 hrs; format: functional; settings: time 16-20 hrs
Enterococcus faecalis [17] = assay: Antibacterial activity against Enterococcus faecalis incubated for 16 to 20 hrs; format: functional; settings: time 16-20 hrs
Enterococcus faecium [18] = assay: Antibacterial activity against Enterococcus faecium incubated for 16 to 20 hrs; format: functional; settings: time 16-20 hrs
Candida tropicalis [19] = assay: Antifungal activity against Candida tropicalis incubated for 16 to 20 hrs; format: functional; settings: time 16-20 hrs
Nakaseomyces glabratus [20] = assay: Antifungal activity against Candida glabrata incubated for 16 to 20 hrs; format: functional; settings: time 16-20 hrs
Vibrio vulnificus [21] = assay: Antibacterial activity against Vibrio vulnificus V1 incubated for 16 to 20 hrs; format: functional; settings: time 16-20 hrs
Vibrio vulnificus [22] = assay: Antibacterial activity against Vibrio vulnificus V2 incubated for 16 to 20 hrs; format: functional; settings: time 16-20 hrs
Vibrio vulnificus [23] = assay: Antibacterial activity against Vibrio vulnificus V3 incubated for 16 to 20 hrs; format: functional; settings: time 16-20 hrs
Klebsiella pneumoniae [24] = assay: Bactericidal activity against NDM Klebsiella pneumoniae incubated overnight; format: functional
Escherichia coli [25] = assay: Bactericidal activity against Escherichia coli incubated overnight; format: functional
Klebsiella aerogenes [26] = assay: Bactericidal activity against Enterobacter aerogenes incubated overnight; format: functional
Vibrio vulnificus [27] = assay: Bactericidal activity against Vibrio vulnificus 204 incubated overnight; format: functional
Vibrio alginolyticus [28] = assay: Bactericidal activity against Vibrio alginolyticus incubated overnight; format: functional
Vibrio harveyi [29] = assay: Bactericidal activity against Vibrio harveyi incubated overnight; format: functional
Aeromonas hydrophila [30] = assay: Bactericidal activity against Aeromonas hydrophila incubated overnight; format: functional
Edwardsiella tarda [31] = assay: Bactericidal activity against Edwardsiella tarda incubated overnight; format: functional
Vibrio anguillarum [32] = assay: Bactericidal activity against Listonella anguillarum incubated overnight; format: functional
Klebsiella oxytoca [33] = assay: Bactericidal activity against Klebsiella oxytoca incubated overnight; format: functional
Salmonella enterica [34] = assay: Bactericidal activity against Salmonella enterica incubated overnight; format: functional
Salmonella typhimurium [35] = assay: Bactericidal activity against Salmonella typhimurium incubated overnight; format: functional, Salmonella enterica subsp. enterica serovar Typhimurium
[36] = tested on: Staphylococcus haemolyticus; assay: Bactericidal activity against Staphylococcus haemolyticus incubated overnight; format: functional
Streptococcus iniae [37] = assay: Bactericidal activity against Streptococcus iniae incubated overnight; format: functional
Streptococcus agalactiae [38] = assay: Bactericidal activity against Streptococcus agalactiae incubated overnight; format: functional
Enterococcus faecalis [39] = assay: Bactericidal activity against Enterococcus faecalis incubated overnight; format: functional
Enterococcus faecium [40] = assay: Bactericidal activity against Enterococcus faecium incubated overnight; format: functional
Candida tropicalis [41] = assay: Fungicidal activity against Candida tropicalis incubated overnight; format: functional
Nakaseomyces glabratus [42] = assay: Fungicidal activity against Candida glabrata incubated overnight; format: functional
Vibrio vulnificus [43] = assay: Bactericidal activity against Vibrio vulnificus V1 incubated overnight; format: functional
Vibrio vulnificus [44] = assay: Bactericidal activity against Vibrio vulnificus V2 incubated overnight; format: functional
Vibrio vulnificus [45] = assay: Bactericidal activity against Vibrio vulnificus V3 incubated overnight; format: functional
Vibrio vulnificus [46] = assay: Antibacterial activity against Vibrio vulnificus 204 assessed as induction of resistance development by measuring fold increase in MIC measured after 15 passages; format: functional
Acinetobacter baumannii = assay: Antibacterial activity against Acinetobacter baumannii; format: functional
Vibrio vulnificus [47] = assay: Antibacterial activity against Vibrio vulnificus infected in BALB/c mouse wound infection model assessed as survival at 0.048 ug per animal administered 12 hrs post infection and measured for 14 days; format: functional; settings: dose 0.048 µg; time 14 day
Pseudomonas aeruginosa [48] = assay: Bactericidal activity against Pseudomonas aeruginosa incubated overnight; format: functional
[49] = Salmonella enterica subsp. enterica serovar Typhimurium

C[C@H]1c2cccc(O)c2C(=O)C2=C(O)[C@]3(O)C(=O)C(C(N)=O)=C(O)[C@@H](N(C)C)[C@@H]3[C@@H](O)[C@@H]21.O [DOXYCYCLINE]
50 µg/mL: MBC (Escherichia coli [25]) | MBC (Vibrio anguillarum [32]) | MBC (Salmonella typhimurium [35]; Salmonella enterica)
0.048 µg/mL: MIC (Acinetobacter baumannii)
6.25 µg/mL: MIC (Pseudomonas aeruginosa [1]) | MIC (Enterococcus faecalis [17]) | MBC (Klebsiella aerogenes [26]) | MBC (Enterococcus faecalis [39])
1.56 µg/mL: MIC (Klebsiella aerogenes [4])
25 µg/mL: MIC (Klebsiella pneumoniae [2]) | MBC (Klebsiella oxytoca [33]) | MBC (Salmonella enterica [34])
3.12 µg/mL: MIC (Klebsiella oxytoca [11])
100 µg/mL: MBC (Klebsiella pneumoniae [24])
25%: Activity (Vibrio vulnificus [47])
> 100 µg/mL: MIC (Candida tropicalis [19]) | MIC (Nakaseomyces glabratus [20]) | MFC (Candida tropicalis [41]) | MFC (Nakaseomyces glabratus [42])
< 1.56 µg/mL: MIC (Escherichia coli [3]) | MIC (Vibrio vulnificus [5]) | MIC (Vibrio alginolyticus [6]) | MIC (Vibrio harveyi [7]) | MIC (Aeromonas hydrophila [8]) | MIC (Edwardsiella tarda [9]) | MIC (Vibrio anguillarum [10]) | MIC (Salmonella enterica [12]) | MIC (Salmonella typhimurium [13]; Salmonella enterica) | MIC [14] | MIC (Streptococcus iniae [15]) | MIC (Streptococcus agalactiae [16]) | MIC (Enterococcus faecium [18]) | MIC (Vibrio vulnificus [21]) | MIC (Vibrio vulnificus [22]) | MIC (Vibrio vulnificus [23]) | MBC (Vibrio vulnificus [27]) | MBC (Edwardsiella tarda [31]) | MBC [36] | MBC (Streptococcus iniae [37]) | MBC (Streptococcus agalactiae [38]) | MBC (Enterococcus faecium [40]) | MBC (Vibrio vulnificus [43]) | MBC (Vibrio vulnificus [44]) | MBC (Vibrio vulnificus [45])
12.5 µg/mL: MBC (Vibrio alginolyticus [28]) | MBC (Vibrio harveyi [29]) | MBC (Aeromonas hydrophila [30])
128: fold change (FC) (Vibrio vulnificus [46])

C[C@@H](O)[C@H]1C(=O)N2C(C(=O)O)=C(S[C@@H]3CN[C@H](C(=O)N(C)C)C3)[C@H](C)[C@H]12 [MEROPENEM]
0.024 µg/mL: MIC (Klebsiella aerogenes [4]) | MIC (Vibrio vulnificus [5]) | MIC (Streptococcus agalactiae [16])
200 µg/mL: MIC (Klebsiella pneumoniae [2])
0.39 µg/mL: MIC (Pseudomonas aeruginosa [1]) | MIC (Streptococcus iniae [15]) | MIC (Acinetobacter baumannii)
0.012 µg/mL: MIC (Escherichia coli [3])

COLISTIN
3.12 µg/mL: MIC (Vibrio alginolyticus [6]) | MIC [14] | MBC (Vibrio alginolyticus [28]) | MBC [36]
12.5 µg/mL: MIC (Klebsiella oxytoca [11]) | MIC (Streptococcus iniae [15]) | MIC (Candida tropicalis [19]) | MBC (Klebsiella oxytoca [33]) | MFC (Candida tropicalis [41])
16: fold change (FC) (Vibrio vulnificus [46])
50 µg/mL: MIC (Streptococcus agalactiae [16]) | MIC (Vibrio vulnificus [21]) | MIC (Vibrio vulnificus [22]) | MIC (Vibrio vulnificus [23]) | MBC (Streptococcus agalactiae [38]) | MBC (Enterococcus faecalis [39]) | MBC (Vibrio vulnificus [43]) | MBC (Vibrio vulnificus [44]) | MBC (Vibrio vulnificus [45])
100 µg/mL: MIC (Aeromonas hydrophila [8])
> 100 µg/mL: MIC (Vibrio harveyi [7]) | MIC (Enterococcus faecium [18]) | MIC (Nakaseomyces glabratus [20]) | MBC (Vibrio vulnificus [27]) | MBC (Vibrio harveyi [29]) | MBC (Aeromonas hydrophila [30]) | MBC (Enterococcus faecium [40]) | MFC (Nakaseomyces glabratus [42])
6.25 µg/mL: MIC (Edwardsiella tarda [9]) | MBC (Edwardsiella tarda [31]) | MBC (Vibrio anguillarum [32])
25 µg/mL: MIC (Vibrio vulnificus [5]) | MBC (Streptococcus iniae [37])
< 1.56 µg/mL: MIC (Pseudomonas aeruginosa [1]) | MIC (Klebsiella pneumoniae [2]) | MIC (Escherichia coli [3]) | MIC (Klebsiella aerogenes [4]) | MIC (Vibrio anguillarum [10]) | MIC (Salmonella enterica [12]) | MIC (Salmonella typhimurium [13]; [49]) | MIC (Enterococcus faecalis [17]) | MBC (Pseudomonas aeruginosa [48]) | MBC (Klebsiella pneumoniae [24]) | MBC (Escherichia coli [25]) | MBC (Klebsiella aerogenes [26]) | MBC (Salmonella enterica [34]) | MBC (Salmonella typhimurium [35]; [49])

Source: ChEMBL document CHEMBL5346873, “Strategic modification of low-activity natural antimicrobial peptides confers antibacterial potential in vitro and in vivo” (Eur J Med Chem, 2023)
